Key:
[1] = test system: Rabbit Psoas myofibrils (skeletal myosin ATPase); experiment: Myofibril ATPase assay, rabbit psoas (skeletal) myofibrils; type: biochemical; details: rabbit psoas myofibrils
In short: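 Myofibrils homogenized in Triton X-100 buffer were assayed in pH 7.0 PIPES with defined Ca2+/EGTA. Myosin-driven ADP formation was coupled to NADH oxidation, with depletion monitored at 340 nm. Each value is the concentration that lowers activity to 75% of vehicle or, for activators, raises it to 125%.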

[2] = test system: Porcine atria myofibrils (atrial myosin ATPase); experiment: Myofibril ATPase assay, porcine atria myofibrils; type: biochemical; details: porcine atria myofibrils
In short: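 Values are Y75 (concentration cutting ATPase activity to 75% of vehicle) or Y125 (raising it to 125%), taken from 4-parameter logistic fits. Rates come from NADH disappearance at 340 nm in a PK/LDH-coupled assay with porcine atria myofibrils.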

[3] = biological target: T1, Porcine ventricle myofibrils (ventricular myosin ATPase) (Sus scrofa, UniProt P79293); experiment: Myofibril ATPase assay, porcine ventricle myofibrils; type: biochemical, porcine (Yucatan minipigs); details: porcine ventricle myofibrils
T1 construct: Myofibrils from porcine cardiac muscle was isolated from the left ventricle of Yucatan minipigs; tissue Exemplar Genetics; host or cells: left ventricle of Yucatan minipigs, myofibrils prepared in house
In short: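 ATPase activity of porcine left-ventricle myofibrils (Yucatan minipig) was followed through PK-LDH coupling as NADH loss at 340 nm, read every 1.5-2 min for 75 min. Slopes were normalised to vehicle wells and fitted to a 4-parameter logistic model. Values are Y75, the concentration giving a 25% drop in activity, or Y125 for activators.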

[4] = Y75 value (75% activity relative to no compound)

T1 sequence (P79293 whole entry): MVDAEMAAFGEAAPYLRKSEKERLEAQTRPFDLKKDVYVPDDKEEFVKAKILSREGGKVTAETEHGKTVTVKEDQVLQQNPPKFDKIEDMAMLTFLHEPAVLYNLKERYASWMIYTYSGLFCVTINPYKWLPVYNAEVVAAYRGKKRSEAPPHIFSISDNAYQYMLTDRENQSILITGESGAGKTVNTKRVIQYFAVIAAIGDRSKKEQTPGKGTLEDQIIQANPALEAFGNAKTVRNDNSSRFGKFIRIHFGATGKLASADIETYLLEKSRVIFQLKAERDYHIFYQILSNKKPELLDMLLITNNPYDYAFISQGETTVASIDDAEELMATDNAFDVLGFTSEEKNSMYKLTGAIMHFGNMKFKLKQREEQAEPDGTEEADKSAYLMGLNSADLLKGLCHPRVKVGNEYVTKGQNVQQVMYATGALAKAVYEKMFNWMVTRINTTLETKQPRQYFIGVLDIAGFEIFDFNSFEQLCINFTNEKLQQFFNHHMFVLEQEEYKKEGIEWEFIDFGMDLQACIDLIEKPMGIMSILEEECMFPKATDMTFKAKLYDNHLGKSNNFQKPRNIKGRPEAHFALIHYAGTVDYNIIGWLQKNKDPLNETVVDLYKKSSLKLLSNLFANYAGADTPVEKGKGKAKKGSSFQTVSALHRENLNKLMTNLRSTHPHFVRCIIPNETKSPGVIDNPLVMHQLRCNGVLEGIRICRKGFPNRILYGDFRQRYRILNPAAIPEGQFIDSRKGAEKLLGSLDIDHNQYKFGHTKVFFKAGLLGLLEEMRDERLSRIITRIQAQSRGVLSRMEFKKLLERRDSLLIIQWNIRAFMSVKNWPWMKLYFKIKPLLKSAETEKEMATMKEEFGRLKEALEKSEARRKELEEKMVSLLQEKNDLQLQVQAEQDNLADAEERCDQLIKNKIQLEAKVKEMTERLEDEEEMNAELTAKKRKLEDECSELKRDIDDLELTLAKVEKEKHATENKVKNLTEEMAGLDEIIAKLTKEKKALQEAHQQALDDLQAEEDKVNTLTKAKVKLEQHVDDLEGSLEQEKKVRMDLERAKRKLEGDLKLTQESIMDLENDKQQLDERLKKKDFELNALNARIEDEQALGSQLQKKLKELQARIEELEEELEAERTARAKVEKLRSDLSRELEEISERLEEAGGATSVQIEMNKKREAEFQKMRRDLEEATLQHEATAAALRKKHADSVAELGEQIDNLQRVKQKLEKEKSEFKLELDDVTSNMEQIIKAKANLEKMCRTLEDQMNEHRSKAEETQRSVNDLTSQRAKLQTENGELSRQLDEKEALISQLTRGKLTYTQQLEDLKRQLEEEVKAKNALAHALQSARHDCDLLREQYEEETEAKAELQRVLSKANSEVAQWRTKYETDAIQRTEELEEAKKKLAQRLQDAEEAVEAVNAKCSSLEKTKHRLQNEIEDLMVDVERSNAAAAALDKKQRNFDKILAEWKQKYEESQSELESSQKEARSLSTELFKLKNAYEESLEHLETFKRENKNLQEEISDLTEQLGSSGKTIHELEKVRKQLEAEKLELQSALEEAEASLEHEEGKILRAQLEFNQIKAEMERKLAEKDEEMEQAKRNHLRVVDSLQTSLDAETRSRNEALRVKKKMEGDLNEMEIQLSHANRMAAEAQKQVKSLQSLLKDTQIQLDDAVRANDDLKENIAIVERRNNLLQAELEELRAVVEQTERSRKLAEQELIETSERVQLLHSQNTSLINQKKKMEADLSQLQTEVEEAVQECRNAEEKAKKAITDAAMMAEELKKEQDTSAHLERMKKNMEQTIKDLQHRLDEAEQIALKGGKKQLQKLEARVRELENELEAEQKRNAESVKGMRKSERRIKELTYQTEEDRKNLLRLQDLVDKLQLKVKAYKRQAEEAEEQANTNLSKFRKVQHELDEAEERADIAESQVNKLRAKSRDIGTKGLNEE

| Skeletal EC25 ([1]; Y75 value) [µM] | Atrial EC25 [2, 4] [µM] | Ventricular EC25 ([3]; Y75 value) [µM] | Skeletal EC25 ([1]; Y75 value (no ‡ mark)) [µM] | Atrial EC25 ([2]; Y75 value (no ‡ mark)) [µM] | Ventricular EC25 ([3]; Y75 value (no ‡ mark)) [µM] | SMILES |
| --- | --- | --- | --- | --- | --- | --- |
| 100.00 | 100.00 | 67.58 |  |  |  | Cc1cc([C@H](C)NC(=O)Cc2cc3c(C#N)nccc3[nH]c2=O)ncc1F [compound 471] |
| 0.40 | 4.05 | 5.93 |  |  |  | C[C@@H](NC(=O)Cc1cc2c(C#N)nccc2[nH]c1=O)c1ccc(C#N)cn1 [compound 472] |
| 0.30 | 1.44 | 6.63 |  |  |  | C[C@H](NC(=O)Cc1cc2c(C#N)nccc2[nH]c1=O)c1ccc(C#N)cn1 [compound 473] |
| 15.42 | 100.00 | 100.00 |  |  |  | C[C@@H](NC(=O)Cc1cc2c(C#N)nccc2[nH]c1=O)c1ccc(F)cn1 [compound 474] |
| 2.98 | 100.00 | 39.76 |  |  |  | C[C@H](NC(=O)Cc1cc2c(C#N)nccc2[nH]c1=O)c1ccc(F)cn1 [compound 475] |
| 65.26 | 5.84 | 33.12 |  |  |  | Cc1nc([C@@H](C)NC(=O)Cc2c(C)c3c(C)nccc3[nH]c2=O)ncc1C#N [compound 478] |
| 100.00 | 100.00 | 100.00 |  |  |  | Cc1nc([C@H](C)NC(=O)Cc2c(C)c3c(C)nccc3[nH]c2=O)ncc1C#N [compound 479] |
| 33.82 | 100.00 | 100.00 |  |  |  | Cc1cnncc1[C@@H](C)NC(=O)Cc1c(C)c2c(C)nccc2[nH]c1=O [compound 480] |
| 100.00 | 100.00 | 100.00 |  |  |  | Cc1cnncc1[C@H](C)NC(=O)Cc1c(C)c2c(C)nccc2[nH]c1=O [compound 481] |
| 100.00 | 28.27 | 63.17 |  |  |  | Cc1nccc2[nH]c(=O)c(CC(=O)N[C@H](C)c3ncc(C#N)cn3)c(C)c12 [compound 482] |
| 7.32 | 4.03 | 16.67 |  |  |  | Cc1nccc2[nH]c(=O)c(CC(=O)N[C@@H](C)c3ncc(C#N)cn3)c(C)c12 [compound 483] |
| 100.00 | 48.27 | 100.00 |  |  |  | Cc1nccc2[nH]c(=O)c(CC(=O)N[C@@H](C)c3ccc(C#N)nn3)c(C)c12 [compound 485] |
| 0.20 | 1.49 | 1.47 |  |  |  | Cc1nccc2[nH]c(=O)c(CC(=O)N[C@H](C)c3cnc(C#N)cn3)c(C)c12 [compound 486] |
| 3.42 | 100.00 | 3.42 |  |  |  | Cc1nccc2[nH]c(=O)c(CC(=O)N[C@@H](C)c3cnc(C#N)cn3)c(C)c12 [compound 487] |
| 1.15 | 12.56 | 4.94 |  |  |  | C#Cc1nccc2[nH]c(=O)c(CC(=O)N[C@@H](C)c3cnc(N=[N+]=[N-])cc3C)c(C)c12 [compound 488] |
| 0.26 | 1.00 | 0.57 |  |  |  | Cc1cc(C#N)nnc1[C@@H](C)NC(=O)Cc1c(C)c2c(C)nccc2[nH]c1=O [compound 489] |
| 45.80 | 100.00 | 100.00 |  |  |  | Cc1cc(C#N)nnc1[C@H](C)NC(=O)Cc1c(C)c2c(C)nccc2[nH]c1=O [compound 490] |
| 7.59 | 1.57 | 11.59 |  |  |  | Cc1nc(C#N)cnc1[C@@H](C)NC(=O)Cc1c(C)c2c(C)nccc2[nH]c1=O [compound 491] |
| 0.28 | 0.08 | 0.32 |  |  |  | Cc1nc(C#N)cnc1[C@H](C)NC(=O)Cc1c(C)c2c(C)nccc2[nH]c1=O [compound 492] |
| 100.00 | 100.00 | 100.00 |  |  |  | Cc1nccc2[nH]c(=O)c(CC(=O)NC[C@H](CO)c3ccccc3)c(C)c12 [compound 493] |
| 100.00 | 100.00 | 100.00 |  |  |  | Cc1nccc2[nH]c(=O)c(CC(=O)NC[C@@H](CO)c3ccccc3)c(C)c12 [compound 494] |
| 100.00 | 100.00 | 100.00 |  |  |  | Cc1nccc2[nH]c(=O)c(CC(=O)N[C@H](CO)Cc3ccccc3)c(C)c12 [compound 495] |

| Skeletal EC25 ([1]; Y75 value) [µM] | Atrial EC25 [2, 4] [µM] | Ventricular EC25 ([3]; Y75 value) [µM] | Skeletal EC25 ([1]; Y75 value (no ‡ mark)) [µM] | Atrial EC25 ([2]; Y75 value (no ‡ mark)) [µM] | Ventricular EC25 ([3]; Y75 value (no ‡ mark)) [µM] | SMILES |
| --- | --- | --- | --- | --- | --- | --- |
| 100.00 | 100.00 | 100.00 |  |  |  | Cc1nccc2[nH]c(=O)c(CC(=O)N[C@@H](CO)Cc3ccccc3)c(C)c12 [compound 496] |
| 100 | 73.3 | 100 |  |  |  | COc1ncc2[nH]c(=O)c(CC(=O)N[C@@H](C)c3ccc(F)cc3F)cc2n1 [compound 497] |
| 7.2 | 100 | 100 |  |  |  | Cc1nccc2[nH]c(=O)c(CC(=O)N[C@H](CO)c3ccc(F)cc3F)c(C)c12 [compound 498] |
| 100 | 100 | 100 |  |  |  | Cc1nncc2[nH]c(=O)c(CC(=O)N[C@H](C)c3ccc(F)cc3F)cc12 [compound 499] |
| 2.3 | 43 | 70 |  |  |  | Cc1nccc2[nH]c(=O)c(CC(=O)N[C@@H](C)c3c(F)cc(F)cc3F)c(C)c12 [compound 500] |
| 3.4 | 76 | 78 |  |  |  | Cc1nccc2[nH]c(=O)c(CC(=O)N[C@H]3CCc4cc(F)cc(F)c43)c(C)c12 [compound 501] |
|  |  |  | 0.34 | 0.42 | 2.7 | Cc1c(CC(=O)N[C@H](C)c2ccc(C#N)nn2)c(=O)[nH]c2cccc(C#N)c12 [compound 1038] |
|  |  |  | 0.08 | 0.22 | 0.67 | Cc1c(CC(=O)N[C@@H](C)c2ccc(C#N)nn2)c(=O)[nH]c2cccc(C#N)c12 [compound 1039] |
|  |  |  | 52 | 6.01 | 12 | Cc1c(CC(=O)N[C@H](C)c2ncc(C#N)cn2)c(=O)[nH]c2cc(F)ccc12 [compound 1040] |
|  |  |  | 7.39 | 18.0 | 76 | Cc1c(CC(=O)N[C@@H](C)c2ncc(C#N)cn2)c(=O)[nH]c2cc(F)ccc12 [compound 1041] |
|  |  |  | 1.88 | 0.89 | 24 | Cc1c(CC(=O)N[C@H](C)c2ccc(C#N)nn2)c(=O)[nH]c2cc(F)c(F)cc12 [compound 1042] |
|  |  |  | 0.41 | 1.28 | 3.5 | Cc1c(CC(=O)N[C@@H](C)c2ccc(C#N)nn2)c(=O)[nH]c2cc(F)c(F)cc12 [compound 1043] |
|  |  |  | 0.02 | 0.06 | 0.10 | Cc1cc(C#N)ncc1[C@@H](C)NC(=O)Cc1c(C)c2c(C)c(F)ccc2[nH]c1=O [compound 1044] |
|  |  |  | 0.44 | 1.5 | 1.7 | Cc1cc(C#N)ncc1[C@H](C)NC(=O)Cc1c(C)c2c(C)c(F)ccc2[nH]c1=O [compound 1045] |
|  |  |  | 0.04 | 0.06 | 0.14 | Cc1ccncc1[C@@H](C)NC(=O)Cc1c(C)c2c(C)c(F)ccc2[nH]c1=O [compound 1046] |
|  |  |  | 100 | 100.00 | 1.13 | Cc1ccncc1[C@H](C)NC(=O)Cc1c(C)c2c(C)c(F)ccc2[nH]c1=O [compound 1047] |
|  |  |  | 2.2 | 0.29 | 1.73 | Cc1ccncc1[C@@H](C)NC(=O)Cc1c(C)c2cc(F)ccc2[nH]c1=O [compound 1048] |
|  |  |  | 29 | 100.00 | 100.00 | Cc1ccncc1[C@H](C)NC(=O)Cc1c(C)c2cc(F)ccc2[nH]c1=O [compound 1049] |
|  |  |  | 3.4 | 0.22 | 2.36 | Cc1nc(C#N)ccc1[C@@H](C)NC(=O)Cc1c(C)c2cc(F)ccc2[nH]c1=O [compound 1050] |
|  |  |  | 0.03 | 0.14 | 0.26 | Cc1nc(C#N)ccc1[C@H](C)NC(=O)Cc1c(C)c2cc(F)ccc2[nH]c1=O [compound 1051] |
|  |  |  | 0.78 | 0.65 | 7.05 | Cc1nc(C#N)ncc1[C@@H](C)NC(=O)Cc1c(C)c2cc(F)ccc2[nH]c1=O [compound 1052] |

Reference: patent publication US12448369B2 (Edgewise Therapeutics, Inc., priority 2023, dated 2025)
